From patent US5281604A, “Angiotensin II receptor blocking 2,3,6-substituted quinazolinones” (American Cyanamid Company, priority 1993, dated 1994)
Values joined by “and” are separate entries in the source; they are usually repeats but may differ in a detail not shown here. Identical values can stand only once.

Tested on: ANGIOTENSIN II (AII) VASOPRESSOR RESPONSE
Assay: AII Challenge: blockade of the angiotensin II vasopressor response in conscious spontaneously hypertensive rats
Format: in vivo, rat (Male Okamoto-Aoki SHR)
Description: By administering a compound of this invention to a rat, and then challenging with angiotensin II, a blockage of the vasopressor response is realized.
Conscious Male Okamoto-Aoki SHR, 16-20 weeks old, weighing approximately 330 g are purchased from Charles River Labs (Wilmington, Mass.). Conscious rats are restrained in a supine position with elastic tape. The area at the base of the tail is locally anesthetized by subcutaneous infiltration with 2% procaine. The ventral caudal artery and vein are isolated, and a cannula made of polyethylene (PE) 10-20 tubing (fused together by heat) is passed into the lower abdominal aorta and vena cava, respectively. The cannula is secured, heparinized (1,000 I.U./ml), sealed and the wound is closed. The animals are placed in plastic restraining cages in an upright position. The cannula is attached to a Statham P23Db pressure transducer, and pulsatile blood pressure is recorded to 10-15 minutes with a Gould Brush recorder. (Chan et al., (Drug Development Res., 18:75-94, 1989).
Angiotensin II (human sequence, Sigma Chem. Co., St. Louis, Mo.) of 0.05 and 0.1 ug/kg i.v. is injected into all rats (predosing response). Then a test compound, vehicle or a known angiotensin II antagonist is administered i.v., i.p. or orally to each set of rats. The two doses of angiotensin II are given to each rat again at 30, 60, 90, 120, 180, 240 and 300 minutes post dosing the compound or vehicle. The vasopressor response of angiotensin II is measured for the increase in systolic blood pressure in mmHg. The percentage of antagonism or blockade of the vasopressor response of angiotensin II by a compound is calculated using the vasopressor response (increase in systolic blood pressure) of angiotensin II of each rat predosing the compound as 100%. A compound is considered active if at 30 mg/kg i.v. it antagonized at least 50% of the response.

[1] = 1 mg/kg i.v., AII 0.05 mcg/kg IV, 30 min post dose
[2] = 1 mg/kg i.v., AII 0.1 mcg/kg IV, 30 min post dose
[3] = 29 mg/kg i.v., AII 0.05 mcg/kg IV, 60 min post dose
[4] = 29 mg/kg i.v., AII 0.05 mcg/kg IV, 90 min post dose
[5] = 29 mg/kg i.v., AII 0.05 mcg/kg IV, 120 min post dose
[6] = 29 mg/kg i.v., AII 0.05 mcg/kg IV, 180 min post dose
[7] = 29 mg/kg i.v., AII 0.05 mcg/kg IV, 240 min post dose
[8] = 29 mg/kg i.v., AII 0.05 mcg/kg IV, 300 min post dose
[9] = 29 mg/kg i.v., AII 0.1 mcg/kg IV, 60 min post dose
[10] = 29 mg/kg i.v., AII 0.1 mcg/kg IV, 90 min post dose
[11] = 29 mg/kg i.v., AII 0.1 mcg/kg IV, 120 min post dose
[12] = 29 mg/kg i.v., AII 0.1 mcg/kg IV, 180 min post dose
[13] = 29 mg/kg i.v., AII 0.1 mcg/kg IV, 240 min post dose
[14] = 29 mg/kg i.v., AII 0.1 mcg/kg IV, 300 min post dose

## CCCCc1nc2ccc(C3CC4C(O3)ON(c3ccccc3)C4c3ccccc3)cc2c(=O)n1Cc1ccc(-c2ccccc2-c2nnn[nH]2)cc1 (stereo not drawn) [Example 10, (3α, 3aβ, 5β, 6aβ)-2-Butyl-6-(hexahydro-2,3-diphenylfuro[3,2-d]isoxazol-5-yl)-3-[[2'-(1H-tetrazol-5-yl)[1,1'-biphenyl]-4-yl]methyl]-4(3H)-quinazolinone]
[1]
  % Inhibition: 39%
  Average Change: 33.5 mmHg
  Control Before AII (single rat): 248 mmHg and 230 mmHg
  Response After AII (single rat): 290 mmHg and 255 mmHg
  Response Change (single rat): 42 mmHg and 25 mmHg
[2]
  % Inhibition: 41%
  Average Change: 42.5 mmHg
  Control Before AII (single rat): 250 mmHg and 220 mmHg
  Response After AII (single rat): 295 mmHg and 260 mmHg
  Response Change (single rat): 45 mmHg and 40 mmHg
[3]
  % Inhibition: 82%
  Average Change: 10 mmHg
  Control Before AII (single rat): 265 mmHg and 235 mmHg
  Response After AII (single rat): 270 mmHg and 250 mmHg
  Response Change (single rat): 5 mmHg and 15 mmHg
[4]
  % Inhibition: 82%
  Average Change: 10 mmHg
  Control Before AII (single rat): 235 mmHg and 230 mmHg
  Response After AII (single rat): 250 mmHg and 235 mmHg
  Response Change (single rat): 15 mmHg and 5 mmHg
[5]
  % Inhibition: 77%
  Average Change: 12.5 mmHg
  Control Before AII (single rat): 210 mmHg and 240 mmHg
  Response After AII (single rat): 225 mmHg and 250 mmHg
  Response Change (single rat): 15 mmHg and 10 mmHg
[6]
  % Inhibition: 73%
  Average Change: 15 mmHg
  Control Before AII (single rat): 215 mmHg and 220 mmHg
  Response After AII (single rat): 235 mmHg and 230 mmHg
  Response Change (single rat): 20 mmHg and 10 mmHg
[7]
  % Inhibition: 82%
  Average Change: 10 mmHg
  Control Before AII (single rat): 220 mmHg and 215 mmHg
  Response After AII (single rat): 235 mmHg and 220 mmHg
  Response Change (single rat): 15 mmHg and 5 mmHg
[8]
  % Inhibition: 73%
  Average Change: 15 mmHg
  Control Before AII (single rat): 210 mmHg and 200 mmHg
  Response After AII (single rat): 220 mmHg
  Response Change (single rat): 10 mmHg and 20 mmHg
[9]
  % Inhibition: 86%
  Average Change: 10 mmHg
  Control Before AII (single rat): 265 mmHg and 230 mmHg
  Response After AII (single rat): 270 mmHg and 245 mmHg
  Response Change (single rat): 5 mmHg and 15 mmHg
[10]
  % Inhibition: 72%
  Average Change: 20 mmHg
  Control Before AII (single rat): 230 mmHg and 235 mmHg
  Response After AII (single rat): 250 mmHg and 255 mmHg
  Response Change (single rat): 20 mmHg
[11]
  % Inhibition: 65%
  Average Change: 25 mmHg
  Control Before AII (single rat): 200 mmHg and 215 mmHg
  Response After AII (single rat): 230 mmHg and 235 mmHg
  Response Change (single rat): 30 mmHg and 20 mmHg
[12]
  % Inhibition: 79%
  Average Change: 15 mmHg
  Control Before AII (single rat): 210 mmHg and 220 mmHg
  Response After AII (single rat): 225 mmHg and 235 mmHg
  Response Change (single rat): 15 mmHg
[13]
  % Inhibition: 79%
  Average Change: 15 mmHg
  Control Before AII (single rat): 215 mmHg
  Response After AII (single rat): 235 mmHg and 225 mmHg
  Response Change (single rat): 20 mmHg and 10 mmHg
[14]
  % Inhibition: 79%
  Average Change: 15 mmHg
  Control Before AII (single rat): 210 mmHg
  Response After AII (single rat): 230 mmHg and 220 mmHg
  Response Change (single rat): 20 mmHg and 10 mmHg
